The text below walks through data of patent US11420944B2, “Voltage-dependent t-type calcium channel blocker” (Nippon Chemiphar Co., Ltd., priority 2016, dated 2022).

The structures appear in SMILES notation. Like-named read-outs stand apart in the source and are kept apart here. Where only a bound is given, the exact number is not on record here.

Data set [1] has as its target T1, human Cav3.2 channels (Homo sapiens, UniProt O95180).
T1 construct: expressed in transfected cells; host or cells: HEK293 cells (ATCC No. CRL-1573), plasmid pcDNA3.1(+)
Description: Electrophysiological evaluation, whole-cell patch-clamp with automatic patch-clamp system. The format is cell-based. As to conditions: for inhibition at 0.3 µM: holding potential −80 mV, read-out: Cav3.2 channel current inhibition ratio at 0.3 μM of test compound (holding potential −80 mV). The protocol:
Electrophysiological Evaluation
Stable cell line expressing human Cav3.2 channels, which had been produced by Test method (1) of Example 140, was seeded in a 10-cm dish using DMEM medium containing 10% FBS, and the cells were cultured for 24 hours or longer under the conditions of 37° C. and 5% CO2. The cells were detached using Accutase and were used after being suspended in ice-cold extracellular solution. The Cav3.2 channel current was measured by the Whole-cell patch-clamp method using an automatic patch-clamp system (Port-a-Patch; Nanion Technologies GmbH, EPC-10; HEKA Elektronik GmbH, Patchmaster; HEKA Elektronik GmbH) and buffers described below. Measurement of the Cav3.2 channel current was carried out at room temperature, and the measurement conditions were set as follows: holding potential: −80 mV, depolarization potential: −20 mV, depolarization time: 100 msec, and depolarization frequency: 10 sec. The Cav3.2 channel current was defined as the peak value of the inward current observed when depolarization occurred at −20 mV.
For a test compound, a DMSO solution was diluted 1,000 times with extracellular solution, and thus a solution having an intended concentration was produced. The test compound was applied using an extracellular perfusion system (Nanion Technologies GmbH) until the Cav3.2 channel current was stabilized, and five concentrations at the maximum from the low-concentration side were cumulatively applied. The inhibition ratio of the test compound was calculated from the current value immediately before the application of the test compound and the change rate of the Cav3.2 channel current after the application of the test compound (conditions for a holding potential of −80 mV: test compound concentration of 0.3 μM, conditions for a holding potential of −100 mV: test compound concentration of 3 μM).
Extracellular solution: 135 mM NaCl, 4 mM KCl, 1 mM MgCl2, 5 mM CaCl2, 5 mM D-Glucose, and 10 mM HEPES, pH 7.4
Internal solution for electrode: 10 mM NaCl, 10 mM HEPES, 50 mM CsCl, 60 mM CsF, and 20 mM EGTA, pH 7.2

A further data set addresses T2, CYP3A4 (Homo sapiens, UniProt P08684).
T2 construct: purchased Cypex, Ltd; host or cells: E. coli membranes (Bactosomes)
Briefly: Evaluation of CYP3A4 activity inhibitory action. As to conditions: Human CYP3A4BR EasyCYP Bactosomes, 7-Benzyloxy-4-(trifluoromethyl)-coumarin. Format: in vitro ADME. The method, then:
Evaluation of CYP3A4 Activity Inhibitory Action
To a 50 mM potassium phosphate buffer solution (pH 7.4), 5 nM Human CYP3A4BR EasyCYP Bactosomes (Cypex, Ltd.), 50 μM 7-Benzyloxy-4-(trifluoromethyl)-coumarin, cofactor mix (0.0081 mM β-NADP^+, 0.4 mM G-6-P, 0.4 mM MgCl2, and 0.2 U/mL G-6-P DH(Y)), and 0.01% Pluronic F-127 were added, and the mixture was incubated for 45 minutes at 37° C. The reaction was initiated by adding the cofactor mix. After the incubation, 0.5 M Tris base/acetonitrile (20:80) was added thereto as a reaction terminating liquid, and the resulting mixture was stirred. Subsequently, the fluorescence intensity (excitation: 405 nm, emission: 535 nm) was measured. The reaction was carried out in duplicate. The results are presented as the inhibition rate at 10 μM of the test compound.

The target of data set [2] is T1, human Cav3.2 channels. Description: Intracellular calcium concentration measurement (Fluo-4 AM) in stable cells expressing human Cav3.2 channels, buffer A / buffer B. The format is cell-based. Put shortly: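 HEK293 cells stably expressing human Cav3.2, Fluo-4 loaded, preincubated 15 min at room temperature with compound (0.1% DMSO final) in buffer A (K+ equilibrium −92 mV) or B (−110 mV). After ionophore, KCl (83.8 or 91.8 mM) stimulus; 10 s fluorescence rise (ex 485/em 510 nm) gave % inhibition and IC50.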
For orientation: Calcium flux is commonly read through the fluorescence of an indicator in the cells.

Setting [3] is: Tables 2 to 6, buffer A, equilibrium potential of potassium −92 mV, read-out: Inhibitory action of buffer A (inactivated state).
Setting [4] is: Table 1, buffer A, equilibrium potential of potassium −92 mV, read-out: Inhibitory action of buffer A (inactivated state).
The mark [5] stands for this setting: Table 1, buffer B, equilibrium potential of potassium −110 mV, read-out: Inhibitory action of buffer B (resting state or closed state).

T1 sequence (O95180 whole entry): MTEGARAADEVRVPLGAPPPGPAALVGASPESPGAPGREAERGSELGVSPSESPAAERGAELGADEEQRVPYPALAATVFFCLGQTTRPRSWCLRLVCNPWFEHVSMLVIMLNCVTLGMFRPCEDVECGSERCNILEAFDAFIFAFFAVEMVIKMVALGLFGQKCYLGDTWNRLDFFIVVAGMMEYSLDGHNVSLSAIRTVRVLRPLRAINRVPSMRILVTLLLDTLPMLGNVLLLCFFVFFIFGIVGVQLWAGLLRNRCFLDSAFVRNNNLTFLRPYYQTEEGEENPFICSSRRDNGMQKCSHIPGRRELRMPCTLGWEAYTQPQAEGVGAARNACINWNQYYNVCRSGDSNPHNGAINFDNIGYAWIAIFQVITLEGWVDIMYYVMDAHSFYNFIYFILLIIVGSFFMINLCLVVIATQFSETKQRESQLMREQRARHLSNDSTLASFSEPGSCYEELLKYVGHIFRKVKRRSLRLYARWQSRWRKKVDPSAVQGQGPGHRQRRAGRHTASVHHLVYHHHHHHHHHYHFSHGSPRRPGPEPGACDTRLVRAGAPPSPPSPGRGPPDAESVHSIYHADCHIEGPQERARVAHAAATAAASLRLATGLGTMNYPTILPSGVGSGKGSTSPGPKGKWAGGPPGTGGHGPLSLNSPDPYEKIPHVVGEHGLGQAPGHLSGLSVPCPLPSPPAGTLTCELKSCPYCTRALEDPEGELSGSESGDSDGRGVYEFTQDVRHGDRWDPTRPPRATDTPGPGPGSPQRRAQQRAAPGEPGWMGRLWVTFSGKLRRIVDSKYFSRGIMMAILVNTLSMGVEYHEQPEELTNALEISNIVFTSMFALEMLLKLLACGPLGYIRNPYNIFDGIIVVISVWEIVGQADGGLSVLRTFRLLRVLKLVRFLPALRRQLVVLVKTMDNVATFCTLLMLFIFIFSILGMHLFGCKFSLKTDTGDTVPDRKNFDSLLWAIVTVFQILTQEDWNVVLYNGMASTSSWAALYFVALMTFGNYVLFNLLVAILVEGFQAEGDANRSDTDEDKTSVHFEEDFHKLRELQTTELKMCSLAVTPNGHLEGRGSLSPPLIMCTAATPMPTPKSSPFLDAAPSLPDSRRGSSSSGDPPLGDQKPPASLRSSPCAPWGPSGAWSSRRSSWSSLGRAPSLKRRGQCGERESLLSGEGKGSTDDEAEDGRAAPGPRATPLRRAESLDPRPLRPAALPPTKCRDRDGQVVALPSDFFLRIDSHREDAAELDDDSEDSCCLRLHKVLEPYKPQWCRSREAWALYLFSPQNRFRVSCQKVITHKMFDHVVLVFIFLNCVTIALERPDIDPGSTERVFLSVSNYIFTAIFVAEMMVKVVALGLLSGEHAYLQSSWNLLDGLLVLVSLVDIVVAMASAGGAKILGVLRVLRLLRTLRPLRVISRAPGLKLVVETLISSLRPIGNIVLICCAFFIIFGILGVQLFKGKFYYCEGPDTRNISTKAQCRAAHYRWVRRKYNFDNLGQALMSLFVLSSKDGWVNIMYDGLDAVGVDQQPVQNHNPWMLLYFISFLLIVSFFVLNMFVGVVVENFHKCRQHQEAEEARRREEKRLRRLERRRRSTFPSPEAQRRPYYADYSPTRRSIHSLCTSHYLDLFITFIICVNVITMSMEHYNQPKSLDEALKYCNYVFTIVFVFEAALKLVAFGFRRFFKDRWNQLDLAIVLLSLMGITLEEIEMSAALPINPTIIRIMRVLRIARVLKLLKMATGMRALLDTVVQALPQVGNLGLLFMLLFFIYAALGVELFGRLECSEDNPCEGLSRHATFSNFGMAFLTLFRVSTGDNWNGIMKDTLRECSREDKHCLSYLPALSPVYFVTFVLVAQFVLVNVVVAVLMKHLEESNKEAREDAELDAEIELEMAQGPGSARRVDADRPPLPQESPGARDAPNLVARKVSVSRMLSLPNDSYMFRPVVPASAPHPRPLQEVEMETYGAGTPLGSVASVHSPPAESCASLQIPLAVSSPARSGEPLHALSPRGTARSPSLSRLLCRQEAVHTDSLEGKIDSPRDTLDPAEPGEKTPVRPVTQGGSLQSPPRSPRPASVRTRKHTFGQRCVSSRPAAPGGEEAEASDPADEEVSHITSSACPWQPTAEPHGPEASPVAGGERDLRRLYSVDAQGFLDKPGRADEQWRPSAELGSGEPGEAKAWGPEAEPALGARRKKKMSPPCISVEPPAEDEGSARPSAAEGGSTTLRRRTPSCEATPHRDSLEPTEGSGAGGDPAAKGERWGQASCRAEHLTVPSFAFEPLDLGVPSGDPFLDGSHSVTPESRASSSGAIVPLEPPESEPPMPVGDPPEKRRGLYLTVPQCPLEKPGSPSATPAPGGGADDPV
T2 sequence (P08684 whole entry): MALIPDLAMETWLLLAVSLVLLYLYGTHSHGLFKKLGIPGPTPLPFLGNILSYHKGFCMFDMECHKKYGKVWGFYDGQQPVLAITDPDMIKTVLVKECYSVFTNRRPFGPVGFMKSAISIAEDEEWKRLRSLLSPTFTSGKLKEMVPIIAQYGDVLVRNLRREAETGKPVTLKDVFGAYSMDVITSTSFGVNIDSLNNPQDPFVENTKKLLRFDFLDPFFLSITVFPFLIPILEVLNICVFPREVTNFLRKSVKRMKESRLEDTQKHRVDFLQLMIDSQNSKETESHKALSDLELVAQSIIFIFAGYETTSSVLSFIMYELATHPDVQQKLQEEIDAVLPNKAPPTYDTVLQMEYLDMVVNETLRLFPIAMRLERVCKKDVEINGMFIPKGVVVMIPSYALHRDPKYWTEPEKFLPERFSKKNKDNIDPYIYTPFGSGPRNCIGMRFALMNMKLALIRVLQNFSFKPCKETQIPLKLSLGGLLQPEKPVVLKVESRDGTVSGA

For `C[C@@H](NC(=O)[C@H]1C[C@@H]1c1nc2ccccc2[nH]1)c1nc2ccc(F)cc2o1` [Example 114, (1S,2S)-2-(1H-benzo[d]imidazol-2-yl)-N—((R)-1-(6-fluorobenzo[d]oxazol-2-yl)ethyl)cyclopropane-1-carboxamide], the inhibition at 0.3 µM on human Cav3.2 channels [1] came to 32%. For the same compound, on CYP3A4, the “CYP3A4 activity inhibition ratio at 10 μM of test compound” value (“CYP3A4 activity inhibition ratio” below) stood at 30.0%. Besides, the IC50 on human Cav3.2 channels [2] (setting [3]) lay in the range of 100 to 1000 nM.
The like results for `C[C@@H](NC(=O)C1CC1c1nc2cc(Cl)ccc2[nH]1)c1cnc(OCC(F)(F)F)s1` (single isomer, unassigned) [Example 64A] were, in that order, 52%, 4.4% and at most 100 nM.
As for `C[C@@H](NC(=O)[C@H]1C[C@@H]1c1nc2ccccc2[nH]1)c1cc2ccc(F)cc2o1` [Example 100, (1S,2S)-2-(1H-benzo[d]imidazol-2-yl)-N—((R)-1-(6-fluorobenzofuran-2-yl)ethyl)cyclopropane-1-carboxamide], the inhibition at 0.3 µM at human Cav3.2 channels [1] is 90%. For the same compound, at human Cav3.2 channels [1] (3 μM, holding potential −100 mV), the “Cav3.2 channel current inhibition ratio at 3 μM of test compound (holding potential −100 mV)” value is on record as 52%. Further, the “CYP3A4 activity inhibition ratio” value at CYP3A4 came out at 27.9%. Besides, the IC50 on human Cav3.2 channels [2] (setting [3]) was at most 100 nM.
As for `C[C@@H](NC(=O)C1CC1c1nc2ccccc2[nH]1)c1ccc(C(F)(F)F)s1` (single isomer, unassigned) [Example 5A], at human Cav3.2 channels [1], the inhibition at 0.3 µM stood at 59%. In addition, on CYP3A4, the “CYP3A4 activity inhibition ratio” value was found to be 13.0%. Also, the IC50 at human Cav3.2 channels [2] (setting [4]) and on human Cav3.2 channels [2] (setting [5]) was 100 to 1000 nM each time.
For the compound `C[C@@H](NC(=O)[C@@H]1CCN(CC(=O)C(C)(C)C)C1)c1ccc(OCC(F)(F)F)s1` [Example 43, (R)-1-(3,3-dimethyl-2-oxobutyl)-N—((R)-1-(5-(2,2,2-trifluoroethoxy)thiophen-2-yl)ethyl)pyrrolidine-3-carboxamide], at human Cav3.2 channels [1], the inhibition at 0.3 µM is 32%. The “CYP3A4 activity inhibition ratio” value on CYP3A4 turned out to be 23.6%. Also, on human Cav3.2 channels [2] (setting [3]), the IC50 was in the range of 100 to 1000 nM.
On the same counts, the results for `C[C@@H](NC(=O)C1CC1c1ccc2cnn(C)c2c1)c1ccc(OCC(F)(F)F)s1` (single isomer, unassigned) [Example 22A] are 81%, 12.2% and 100 to 1000 nM.
On the same counts, the results for `C[C@@H](NC(=O)C1CC1c1nc2ccccc2[nH]1)c1ccc(C(=O)O)s1` (single isomer, unassigned) [Example 26] are 19%, 11.3% and 100 to 1000 nM.
`C[C@@H](NC(=O)C1CC1c1nc2ccccc2n1C)c1ccc(OCC(F)(F)F)s1` (single isomer, unassigned) [Example 4A]: at human Cav3.2 channels [1], the inhibition at 0.3 µM came to 58%. The “CYP3A4 activity inhibition ratio” value at CYP3A4 stood at 39.6%. Besides, the IC50 is at most 100 nM at human Cav3.2 channels [2] (setting [4]) and above 10000 nM on human Cav3.2 channels [2] (setting [5]).
Consider `C[C@@H](NC(=O)[C@H]1C[C@@H]1c1nc2ccccc2[nH]1)c1nc2cc(F)ccc2o1` [Example 105, (1S,2S)-2-(1H-benzo[d]imidazol-2-yl)-N—((R)-1-(5-fluorobenzo[d]oxazol-2-yl)ethyl)cyclopropane-1-carboxamide], for which, on human Cav3.2 channels [1], the inhibition at 0.3 µM came to 58%. Moreover, the “CYP3A4 activity inhibition ratio” value at CYP3A4 is recorded as 21.2%. Moreover, the IC50 at human Cav3.2 channels [2] (setting [3]) was in the range of 100 to 1000 nM.
The like results for `C[C@@H](NC(=O)[C@@H]1CCN(CC(=O)Nc2cc(Cl)cc(Cl)c2)C1)c1ccc(OCC(F)(F)F)s1` [Example 42, (R)-1-(2-((3,5-dichlorophenyl)amino)-2-oxoethyl)-N—((R)-1-(5-(2,2,2-trifluoroethoxy)thiophen-2-yl)ethyl)pyrrolidine-3-carboxamide] were, in that order, 87%, 77.9% and at most 100 nM.
On the same counts, the results for `C[C@@H](NC(=O)[C@H]1C[C@@H]1c1nc2ccccc2[nH]1)c1cc2c(F)cc(F)cc2o1` [Example 92, (1S,2S)-2-(1H-benzo[d]imidazol-2-yl)-N—((R)-1-(4,6-difluorobenzofuran-2-yl)ethyl)cyclopropane-1-carboxamide] are 74%, 23.6% and at most 100 nM.
The like results for `C[C@@H](NC(=O)[C@@H]1CCN(CC(=O)NC23CC4CC(CC(C4)C2)C3)C1)c1ccc(OCC(F)(F)F)s1` [Example 36, (R)-1-(2-(adamantan-1-ylamino)-2-oxoethyl)-N—((R)-1-(5-(2,2,2-trifluoroethoxy)thiophen-2-yl)ethyl)pyrrolidine-3-carboxamide] were, in that order, 94%, 81.0% and at most 100 nM.
Consider `C[C@@H](NC(=O)[C@H]1C[C@@H]1c1nc2ccccc2[nH]1)c1ccc(C(=O)N2CCC(F)(F)C2)s1` [Example 60, Trans-2-(1H-benzo[d]imidazol-2-yl)-N—((R)-1-(5-(3,3-difluoropyrrolidine-1-carbonyl)thiophen-2-yl)ethyl)cyclopropane-1-carboxamide], for which, on human Cav3.2 channels [1], the inhibition at 0.3 µM was 48%. The “CYP3A4 activity inhibition ratio” value on CYP3A4 is −1.2%. The IC50 at human Cav3.2 channels [2] (setting [3]) fell in the range of 100 to 1000 nM.
With `C[C@@H](NC(=O)C1CC1c1nc2ccccc2[nH]1)c1ccc(C(=O)N2CCCCC2)s1` (stereo in doubt) [Example 61, Trans-2-(1H-benzo[d]imidazol-2-yl)-N—((R)-1-(5-(piperidine-1-carbonyl)thiophen-2-yl)ethyl)cyclopropane-1-carboxamide], the inhibition at 0.3 µM at human Cav3.2 channels [1] was 53%. In addition, on CYP3A4, the “CYP3A4 activity inhibition ratio” value was found to be 4.5%. In addition, on human Cav3.2 channels [2] (setting [3]), the IC50 lay within 100 to 1000 nM.
As to `C[C@@H](NC(=O)[C@@H]1CCN(CC(=O)NC(C)(C)C)C1)c1ccc(OCC(F)(F)F)s1.Cl` [Example 15, (R)-1-(2-(tert-butylamino)-2-oxoethyl)-N—((R)-1-(5-(2,2,2-trifluoroethoxy)thiophen-2-yl)ethyl)pyrrolidine-3-carboxamide hydrochloride], the inhibition at 0.3 µM at human Cav3.2 channels [1] came out at 33%. On CYP3A4, the “CYP3A4 activity inhibition ratio” value came to 21.9%. In addition, the results for the IC50 on human Cav3.2 channels [2] (setting [4]) and at human Cav3.2 channels [2] (setting [5]) were 100 to 1000 nM and 1000 to 10000 nM, respectively.
With `C[C@@H](NC(=O)[C@H]1C[C@@H]1c1nc2ccccc2[nH]1)c1cc2cc(F)ccc2[nH]1` [Example 63, (1S,2S)-2-(1H-benzo[d]imidazol-2-yl)-N—((R)-1-(5-fluoro-1H-indol-2-yl)ethyl)cyclopropane-1-carboxamide], the inhibition at 0.3 µM on human Cav3.2 channels [1] came to 91%. In addition, the “CYP3A4 activity inhibition ratio” value on CYP3A4 is 45.7%. Also, the IC50 at human Cav3.2 channels [2] (setting [3]) is at most 100 nM.
The like results for `C[C@@H](NC(=O)[C@H]1C[C@@H]1c1nc2ccccc2[nH]1)c1cc2cc(F)c(F)cc2o1` [Example 91, (1S,2S)-2-(1H-benzo[d]imidazol-2-yl)-N—((R)-1-(5,6-difluorobenzofuran-2-yl)ethyl)cyclopropane-1-carboxamide] were, in that order, 72%, 20.1% and at most 100 nM.
